Holding throughout (format): in vivo
The nature of assay [1]: Insecticidal evaluation of fraction 1 and fraction 3 (resolved isomers). The note with it: fraction 1 (92.9% isomer A) against fraction 3. How it is done:
(±)-1,1,1-trifluoro-2-(4-ethoxyphenyl)-3-(3-phenoxybenzyloxy)propane was resolved by high pressure liquid chromatography, using a Pirkle type 1A column (25 cm×4.9 mm) at -20° C., and n-hexane containing 1% by volume chloroform as eluent, at a flow rate of 0.7 cm^3 /minute. Elution was monitored using a UV detector at […]. Two isomers were detected:isomer A (retention time ca. 51 minutes) and isomer B (retention time ca. 54.6 minutes). A total of three fractions were collected.

A further assay has as its system Tetranychus urticae. Description: Insecticidal/acaricidal test, Tetranychus urticae (spider mites - adult), contact. Conditions: 72 h, French bean leaf, 3 days, read-out: grading of mortality, TU. An outline of the steps: (§1)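 Product applied at 500, 250 or 100 ppm as acetone solution diluted in water with 0.01% Lissapol NX wetting agent, onto pests and/or their host plant or food medium. Mortality or knockdown scored 1–3 days after treatment and graded A (80–100%; 70–100% for S. exigua), B (50–79%; 50–69% for S. exigua) or C (<50%).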

Another assay relates to Myzus persicae. Kind of assay: Insecticidal test, Myzus persicae (aphids), contact. The note with it: 72 h, Chinese Cabbage leaf, 3 days, read-out: grading of mortality, MP. The method, boiled down:
as §1

A further assay deals with Nilaparvata lugens. Kind of assay: Insecticidal test, Nilaparvata lugens (brown planthopper), contact. Conditions: 72 h, Cabbage leaf, 3 days, read-out: grading of mortality, NL. An outline of the steps:
as §1

The subject of assay [2] is Musca domestica. Kind of assay: Knockdown test, Musca domestica (houseflies - adults). Conditions: cotton wool/sugar, 4 hours, read-out: grading of knockdown, MD/KD. The method, boiled down: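 Knockdown scores were banded: A 80–100%, B 50–79%, C <50%. Test preparations of 500, 250 or 100 ppm compound were made in acetone, then diluted with water containing 0.01% Lissapol NX, and applied to Musca domestica adults.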

The subject of assay [3] is Musca domestica. Description: Insecticidal test, Musca domestica (houseflies - adults), contact. The note with it: 24 h, cotton wool/sugar, 1 day, read-out: grading of mortality, MD. An outline of the steps:
as §1

Another assay concerns Blattella germanica. Kind of assay: Insecticidal test, Blattella germanica (cockroach nymphs), residual. Conditions: 72 h, plastic pot, 3 days, read-out: grading of mortality, BG. The method, boiled down: as §1
In another assay the test system is Heliothis virescens. Kind of assay: whole plant or invertebrate. The note with it: in Gossypium hirsutum, 72 h, read-out: grading of mortality, HV. An outline of the steps: as §1
The next assay relates to Spodoptera exigua. Kind of assay: Insecticidal test, Spodoptera exigua (lesser armyworm), residual. Conditions: 72 h, cotton leaf, 3 days, read-out: grading of mortality, SE. The method, boiled down: as §1
The subject of a further assay is Diabrotica balteata. Description: Insecticidal test, Diabrotica balteata (rootworm larvae), residual. The note with it: 72 h, filter paper/maize seed, 3 days, read-out: grading of mortality, DB. An outline of the steps:
as §1

This is an account of results in patent publication US5225607A, “Insecticidal ethers” (Imperial Chemical Industries PLC, priority 1985, dated 1993).

With `CCOc1ccc(C(COCc2cccc(Oc3ccccc3)c2)C(F)(F)F)cc1` (single isomer, unassigned) [isomer A, (+)-1,1,1-trifluoro-2-(4-ethoxyphenyl)-3-(3-p-henoxybenzyloxy)-propane], the “insecticidal activity of isomer A relative to isomer B” value in [1] is given as “substantially more active than isomer B”.

One may read the mortality as the share of the test organisms that died. Take `OC(COCc1cccc(Oc2ccc(Cl)cc2)c1)(c1ccc2c(c1)OCO2)C(F)(F)F` (stereo not shown) [Compound 129, 1,1,1-Trifluoro-2-(3,4-methylenedioxyphenyl)-3-(3-(4-chlorophenoxy)benzyloxy)propan-2-ol]: the mortality at 500 ppm was under 50% with Tetranychus urticae; 50 to 79% in the assay on Myzus persicae; 80 to 100% with Nilaparvata lugens; 80 to 100% in the assay on Musca domestica [3]; under 50% in the assay on Blattella germanica; 50 to 79% with Heliothis virescens. Moreover, the figures for the mortality at 500 ppm in the assay with Spodoptera exigua and in the assay with Diabrotica balteata were 70 to 100% and under 50%, respectively. Moreover, the pest or weed control at 500 ppm in the assay with Musca domestica [2] lay within 80 to 100%.

Take `OC(COCc1cccc(Oc2ccc(Cl)cc2)c1)(c1ccc(OC(F)(F)F)cc1)C(F)(F)F` (stereo not shown) [Compound 135, 1,1,1-Trifluoro-2-(4-trifluoromethoxyphenyl)-3-(3-(4-chlorophenoxy)benzyloxy)propan-2-ol]: the mortality at 250 ppm in the assay with Tetranychus urticae (250 ppm) was under 50%; in the assay on Myzus persicae (250 ppm) it was under 50%; with Nilaparvata lugens (250 ppm), under 50%; with Musca domestica [3] (250 ppm), under 50%; with Blattella germanica (250 ppm), under 50%; in the assay with Heliothis virescens, 80 to 100%. The mortality at 250 ppm in the assay with Spodoptera exigua (250 ppm) is 70 to 100%; with Diabrotica balteata (250 ppm) it was under 50%. Further, the pest or weed control at 250 ppm in the assay on Musca domestica [2] (250 ppm) lay within 80 to 100%.

Regarding `OC(COCc1cccc(Oc2ccccc2)n1)(c1ccc(OC(F)(F)F)cc1)C(F)(F)F` (stereo not shown) [Compound 136, 1,1,1-Trifluoro-2-(4-trifluoromethoxyphenyl)-3-(6-phenoxy-2-pyridylmethyloxy)propan-2-ol], the mortality at 500 ppm was under 50% in the assay on Tetranychus urticae; under 50% in the assay with Myzus persicae; under 50% in the assay on Nilaparvata lugens; 80 to 100% in the assay with Musca domestica [3]; under 50% with Blattella germanica; 50 to 79% in the assay with Heliothis virescens. For the same compound, the mortality at 500 ppm with Spodoptera exigua is under 50%; in the assay on Diabrotica balteata, 80 to 100%. For the same compound, the pest or weed control at 500 ppm in the assay on Musca domestica [2] was in the range of 80 to 100%.

On to `OC(COCc1cccc(Oc2ccccc2)c1)(c1ccc(C(F)(F)F)cc1)C(F)(F)F` (stereo not shown) [Compound 137, 1,1,1-Trifluoro-2-(4-trifluoromethylphenyl)-3-(3-phenoxybenzyloxy)propan-2-ol], for which the mortality at 500 ppm in the assay on Tetranychus urticae is under 50%; in the assay with Myzus persicae, 80 to 100%; with Nilaparvata lugens it was under 50%; with Musca domestica [3], under 50%; in the assay with Blattella germanica, under 50%; with Heliothis virescens, under 50%. Also, the mortality at 500 ppm with Spodoptera exigua was 70 to 100%; in the assay on Diabrotica balteata, under 50%. In addition, the pest or weed control at 500 ppm in the assay with Musca domestica [2] was under 50%.

Consider `Fc1ccc(COC=C(c2ccc(OC(F)(F)F)cc2)C(F)(F)F)cc1Oc1ccccc1` [Compound 462, 1,1,1-trifluoro-2-(4-trifluoromethoxyphenyl)-3-(3-phenoxy-4-fluorobenzyloxy)prop-2-ene], for which the mortality at 100 ppm in the assay on Tetranychus urticae (100 ppm) is under 50%; in the assay on Myzus persicae (100 ppm) it was under 50%; in the assay on Nilaparvata lugens (100 ppm), under 50%; in the assay with Musca domestica [3] (100 ppm), 80 to 100%; with Blattella germanica (100 ppm), 80 to 100%; in the assay on Heliothis virescens, 80 to 100%. Besides, the figures for the mortality at 100 ppm in the assay with Spodoptera exigua (100 ppm) and in the assay with Diabrotica balteata (100 ppm) were 70 to 100% and 50 to 79%, respectively. For the same compound, in the assay with Musca domestica [2] (100 ppm), the pest or weed control at 100 ppm is 80 to 100%.
